Data: the supplement of paper PMC10307832

Assays:
Test in all cases: relative viability (nuclei count vs DMSO), 5 days (fraction); higher = more cells survive
[1] = compound: Nc1nc(Nc2ccc3c(c2)CC[C@@H](N2CCCC2)CC3)nn1-c1cc2c(nn1)-c1ccccc1CCC2 [Bemcentinib] + N=C(N)NC(=N)NCCc1ccccc1 [Phenformin] (partner 250 µM)
Procedure, shortened: (§1)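 After 5 days of treatment, lung cancer cells in 1536-well plates were fixed and stained in a single step (final 0.05% Triton X-100, 1% formaldehyde, 1 ug/ml Hoechst) and their nuclei counted on 4× images. Treatment had been applied by pin tool the day after seeding as one drug alone or as a fixed anchor-drug dose with five library-drug doses (not always all listed) in √10 steps. Relative viability is the nuclei count of treated wells divided by that of vehicle wells, and values are medians of duplicate plates.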

[2] = compound: Nc1nc(Nc2ccc3c(c2)CC[C@@H](N2CCCC2)CC3)nn1-c1cc2c(nn1)-c1ccccc1CCC2 [Bemcentinib] + CS(=O)(=O)CCNCc1ccc(-c2ccc3ncnc(Nc4ccc(OCc5cccc(F)c5)c(Cl)c4)c3c2)o1 [Lapatinib] (partner 2 µM)
Procedure, shortened: as §1

[3] = compound: CNC(=O)c1ccccc1Sc1ccc2c(/C=C/c3ccccn3)n[nH]c2c1 [Axitinib] + Cc1nc(Nc2ncc(C(=O)Nc3c(C)cccc3Cl)s2)cc(N2CCN(CCO)CC2)n1 [Dasatinib] (partner 0.075 µM)
Procedure, shortened: as §1

[4] = compound: CC1=CC=C(C=C1)C(=O)CN2C3=C(CCCC3)SC2=N [Pifithrin_alpha] + Cc1nc(Nc2ncc(C(=O)Nc3c(C)cccc3Cl)s2)cc(N2CCN(CCO)CC2)n1 [Dasatinib] (partner 0.075 µM)
Procedure, shortened: as §1

Row | Cell Line | relative viability ([1]; first compound 0.04 µM) | relative viability ([1]; first compound 0.1265 µM) | relative viability ([1]; first compound 0.4 µM) | relative viability ([1]; first compound 1.265 µM) | relative viability ([1]; first compound 4 µM) | relative viability ([2]; first compound 0.04 µM) | relative viability ([2]; first compound 0.1265 µM) | relative viability ([2]; first compound 0.4 µM) | relative viability ([2]; first compound 1.265 µM) | relative viability ([2]; first compound 4 µM) | relative viability ([3]; first compound 0.005 µM) | relative viability ([3]; first compound 0.01581 µM) | relative viability ([3]; first compound 0.05 µM) | relative viability ([3]; first compound 0.1581 µM) | relative viability ([3]; first compound 0.5 µM) | relative viability ([4]; first compound 1 µM) | relative viability ([4]; first compound 3.162 µM) | relative viability ([4]; first compound 10 µM) | relative viability ([4]; first compound 31.62 µM) | relative viability ([4]; first compound 100 µM)
1 | SK-MES-1 | 0.687 | 0.691 | 0.652 | 0.758 | 0.667 | 0.437 | 0.447 | 0.431 | 0.482 | 0.511 | 0.42 | 0.435 | 0.446 | 0.382 | 0.622 | 0.344 | 0.237 | 0.264 | 0.228 | 0.268
2 | NCI-H520 | 0.573 | 0.606 | 0.608 | 0.733 | 0.62 | 0.855 | 0.943 | 1.08 | 0.768 | 1.05 | 0.197 | 0.159 | 0.194 |  | 0.192 | 0.299 | 0.204 | 0.18 | 0.243 | 0.263
3 | BEN | 0.242 | 0.289 | 0.269 | 0.255 | 0.295 | 0.488 | 0.844 | 0.807 | 0.531 | 0.734 | 0.293 | 0.264 | 0.314 | 0.365 | 0.263 | 0.217 | 0.36 | 0.373 | 0.343 | 0.299
4 | LK-2 | 0.461 | 0.483 | 0.443 | 0.463 | 0.828 | 0.869 | 0.908 | 1.07 | 0.838 | 0.891 | 0.333 | 0.305 | 0.343 | 0.282 | 0.223 | 0.249 | 0.246 | 0.28 |  | 0.307
5 | NCI-H2087 | 0.435 | 0.481 | 0.52 | 0.492 | 0.487 | 0.992 | 0.951 | 1.08 | 1.01 | 1.01 | 0.852 | 1.01 | 0.908 | 0.837 | 0.861 | 0.982 | 0.869 | 0.83 |  | 0.862
6 | NCI-H661 | 0.268 | 0.263 | 0.28 | 0.271 | 0.286 | 0.484 | 0.431 | 0.491 | 0.567 | 0.469 | 1.01 | 0.737 | 0.843 | 0.83 | 0.927 | 0.967 | 0.842 | 0.801 | 0.62 | 0.76
7 | NCI-H2170 | 0.402 | 0.429 | 0.456 | 0.389 | 0.435 | 0.274 | 0.267 | 0.295 | 0.251 | 0.273 | 0.606 | 0.579 | 0.64 | 0.582 | 0.522 | 0.68 | 0.467 | 0.512 | 0.39 | 0.404
8 | LOU-NH91 | 0.637 | 0.663 | 0.73 | 0.748 | 0.673 | 0.714 | 0.79 | 0.789 | 0.742 | 0.756 | 0.569 | 0.434 | 0.61 | 0.558 | 0.568 | 0.371 | 0.501 | 0.535 | 0.475 | 0.493
9 | NCI-H647 | 0.631 | 0.488 | 0.674 | 0.62 | 0.544 | 1.2 | 1.25 | 1.1 | 0.978 | 1.22 | 0.206 | 0.182 | 0.194 | 0.18 | 0.126 | 0.218 | 0.17 | 0.141 | 0.153 | 0.153
10 | NCI-H1915 | 0.376 | 0.375 | 0.372 | 0.383 | 0.353 | 0.958 | 1.07 | 0.979 | 1.09 | 1.05 | 0.307 | 0.289 | 0.315 | 0.29 | 0.252 | 0.284 | 0.295 |  |  | 0.276
11 | NCI-H1944 | 0.202 | 0.211 | 0.219 | 0.217 | 0.206 | 0.794 | 0.909 | 0.817 | 0.883 | 0.887 | 0.213 | 0.223 | 0.214 | 0.202 | 0.188 | 0.217 | 0.214 | 0.217 | 0.173 | 0.196
12 | NCI-H1792 | 0.293 | 0.293 | 0.326 | 0.193 | 0.248 | 0.899 | 0.855 | 1.11 | 0.969 | 0.896 | 0.763 | 0.749 | 0.618 | 0.761 | 0.838 |  | 1.17 | 0.641 | 0.533 | 0.639
13 | HARA | 0.41 | 0.541 | 0.539 | 0.434 | 0.498 | 0.668 | 0.928 | 0.788 | 0.865 | 0.469 | 0.211 | 0.2 | 0.293 | 0.246 | 0.253 |  | 0.256 | 0.257 |  | 0.268
14 | NCI-H2347 | 0.423 | 0.447 | 0.329 | 0.364 | 0.334 | 1.01 | 0.928 | 0.977 | 0.955 | 0.9 | 0.304 | 0.324 | 0.288 | 0.308 | 0.323 | 0.273 | 0.309 | 0.301 | 0.333 | 0.291
